Experimental findings from patent publication EP0595183B1, “Hydantoin derivatives, salts thereof and maillard reaction inhibitors comprising the same” (SANWA KAGAKU KENKYUSHO CO., LTD., priority 1992, dated 1994) are described below.

Series [1] in a line: Acute toxicity by oral administration. To be noted: in vivo. From the text:
(§1) Acute and 4 week subacute toxicities of exemplar compounds according to the invention were checked by oral administration thereof and using rats.

Series [2] has as its system bovine serum albumin (BSA). Briefly: Inhibition of fluorescence development (Maillard reaction products) in BSA/fructose incubation. As to conditions: compound 5mM, BSA 10mg/ml, fructose 400mM, pH 7.4, 20% DMSO, 37°C for 24 hours; fluorescence ex 350nm / em 428nm. The series is classed as biochemical. The procedure: A testing or control compound (5mM), bovine serum albumin (BSA, 10mg/ml) and fructose (400mM) were dissolved in […] Na-phosphate buffer (pH 7.4) containing 20% DMSO. The mixture was incubated at 37°C for 24 hours.
The incubated mixture was diluted to 10 folds in volume with distilled water and measured fluorescense intensity at excitation wavelength of 350nm and emission wavelength of 428nm with a HITACHI F-4010 spectrofluorometer. The inhibition ratio of fluorescense development was estimated with the following equation. Inhibition (%) = {[F1-F3-F4)- (F2-F3-F4)]/(F1-F3-F4)} x 100 [formula] wherein, Inhibition : Inhibition ratio, F1 : Fluorescense intensity of the solution containing no compound, F2 : Fluorescense intensity of the solution containing the compound, F3 : Fluorescense intensity of the solution containing only BSA, and F4 : Fluorescense intensity of the solution containing only fructose.

Another series relates to lysozyme. Briefly: Inhibition of cross-linking of proteins (SDS-PAGE), lysozyme with fructose. The series is classed as biochemical. To be noted: Protein Lysozyme 10mg/ml, compound 5mM, fructose 400mM, pH 7.4, 37°C for 7 days. The method, then:
(§2) A testing or control compound (5mM), fructose (400mM) and a protein of either BSA (10mg/ml) or lysozyme (10mg/ml) were dissolved in 0.5M Na-phosphate buffer (pH 7.4). The mixture was incubated at 37°C for 7 days At the end of the reaction period, sodium dodecyl sulfonate-polyacrylamide gel electrophoresis (SDS-PAGE) was carried out with using aliquots of the reaction mixture. Protein band was stained with Coomassie brilliant blue and protein content of each band was determined with a SHIMAZU UV-265 scanmeter.
(§3) The inhibition ratio of cross-linking of proteins was estimated with the following equation. Inhibition ratio (%) = [(A - B)/A] x 100 [formula] wherein, A : degree of cross-link formation (containing no compound), and B : degree of cross-link formation (containing the compound).

A further series has as its system BSA. The experiment in a line: Inhibition of cross-linking of proteins (SDS-PAGE), BSA with fructose. It counts as biochemical. As to conditions: Protein BSA 10mg/ml, compound 5mM, fructose 400mM, pH 7.4, 37°C for 7 days. The method, then: as §2, §3
In the next series the test system is rats. The experiment in a line: 4 week subacute toxicity by oral administration. To be noted: rat (male). It counts as in vivo.
From the text: as §1

In the case of `NNC(=O)[C@H]1C[C@@]2(NC(=O)NC2=O)c2cc(F)ccc2O1` [Example 1, (2R,4R)-6-Fluoro-2',5'-dioxospiro[chroman-4,4'-imidazolidine]-2-carbohydrazide], the median lethal dose (LD50) in series [1] (rat (female)) and in series [1] (rat (male)) was more than 4000 mg/kg each time. Moreover, in series [2], the “Inhibition ratio (%)” value came out at 87.3%.
Consider `O=C1NC(=O)[C@@]2(C[C@@H](C(=O)NNc3ccccc3)Oc3ccc(F)cc32)N1` [Reference Example 4, (2S,4S)-6-Fluoro-2',5'-dioxo-N'-phenylspiro[chroman-4,4'-imidazolidine]-2-carbohydrazide], for which the “Inhibition ratio (%)” value in series [2] is on record as 17.8%.
For the compound `NNC(=O)[C@@H]1C[C@]2(NC(=O)NC2=O)c2cc(F)ccc2O1` [Reference Example 2, (2S,4S)-6 -Fluoro-2',5'-dioxospiro[chroman-4,4'-imidazolidine]-2-carbohydrazide], the median lethal dose (LD50) in series [1] (rat (female)) and in series [1] (rat (male)) was more than 4000 mg/kg in each case. Besides, the entries for the “Inhibition ratio (%)” value (in the series with lysozyme; in series [2]; with BSA) were 67.4%, 88.7% and 88.7%, respectively. In the series on rats, this compound had a Non-toxic dose of more than 2000 mg/kg.
On to `NNC(=O)[C@@H]1C[C@@]2(NC(=O)NC2=O)c2cc(F)ccc2O1` [Example 3, (2S,4R)-6-Fluoro-2',5'-dioxospiro[chroman-4,4'-imidazolidine]-2-carbohydrazide], for which the “Inhibition ratio (%)” value in series [2] is given as 88.1%.
Regarding `N=C(N)NN` [Aminoguanidine, reference compound], the LD50 (commonly the dose at which mortality reaches 50%) in series [1] (rat (female)) stood at 1300 mg/kg; in series [1] (rat (male)), 1900 mg/kg. The “Inhibition ratio (%)” value is listed as 59.3% in the series with lysozyme, 86.9% in series [2] and 70.7% in the series on BSA. The same compound showed a Non-toxic dose with rats of 30 mg/kg.
Consider `O=C1NC(=O)[C@@]2(C[C@@H](C(=O)NNC(=O)C(F)(F)F)Oc3ccc(F)cc32)N1` [Example 7, (2S, 4S)-6-Fluoro-2',5'-dioxo-N'-trifluoroacetylspiro[chroman-4,4'-imidazolidine]-2-carbohydrazide], for which the “Inhibition ratio (%)” value in series [2] was 21.3%.
On to `CNNC(=O)[C@@H]1C[C@]2(NC(=O)NC2=O)c2cc(F)ccc2O1` [Reference Example 3, (2S,4S)-6-Fluoro-N'-methyl-2',5'-dioxospiro[chroman-4,4'-imidazolidine]-2-carbohydrazide], for which the “Inhibition ratio (%)” value in series [2] is given as 41.6%.
As for `NC(=O)[C@@H]1C[C@]2(NC(=O)N(N)C2=O)c2cc(F)ccc2O1` [Example 10, (2S,4S)-1'-Ainino-6-fluoro-2',5'-dioxospiro[chroman-4,4'-imidazolidine]-2-carboxamide], the “Inhibition ratio (%)” value in series [2] came to 19.7%.
For `NNC(=O)[C@H]1C[C@]2(NC(=O)NC2=O)c2cc(F)ccc2O1` [Example 2, (2R,4S)-6-Fluoro-2',5'-dioxospiro[chroman-4,4'-imidazolidine]-2-carbohydrazide], the “Inhibition ratio (%)” value in series [2] turned out to be 88.6%.
Still for that read-out and setting: the value for `NNC(=O)[C@@H]1C[C@]2(NC(=O)N(N)C2=O)c2cc(F)ccc2O1` [Example 9, (2S,4S)-1'-Amino-6-fluoro-2',5'-dioxospiro[chroman-4,4'-imidazolidine]-2-carbohydrazide] was 86.6%.
